In patent publication US7741327B2 (Hoffmann-La Roche Inc., priority 2008, dated 2010):

biological target: T1, Recombinant human liver GK1 (GST-GK) (Homo sapiens, UniProt P35557); assay: In vitro glucokinase activity (G6PDH-coupled NADH assay); format: biochemical; settings: 30° C., 5 mM D-glucose, 10% DMSO
T1 construct: made in house; host or cells: E. coli
T1 sequence (P35557 1-466 isoform P35557-2): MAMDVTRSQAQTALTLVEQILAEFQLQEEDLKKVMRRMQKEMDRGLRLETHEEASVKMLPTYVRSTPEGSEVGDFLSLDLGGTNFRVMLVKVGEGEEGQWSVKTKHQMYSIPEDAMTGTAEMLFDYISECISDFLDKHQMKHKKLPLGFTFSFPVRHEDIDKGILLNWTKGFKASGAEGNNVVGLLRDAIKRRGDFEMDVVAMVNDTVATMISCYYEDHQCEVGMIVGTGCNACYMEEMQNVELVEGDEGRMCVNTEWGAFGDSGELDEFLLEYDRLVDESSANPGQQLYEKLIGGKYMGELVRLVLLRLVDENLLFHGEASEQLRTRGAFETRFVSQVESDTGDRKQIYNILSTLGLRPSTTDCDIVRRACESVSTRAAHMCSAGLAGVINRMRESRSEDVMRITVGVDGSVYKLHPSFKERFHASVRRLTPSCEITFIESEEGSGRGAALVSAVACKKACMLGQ
Method: Glucokinase In Vitro Assay Protocol: Glucokinase (GK) was assayed by coupling the production of glucose-6-phosphate to the generation of NADH with glucose-6-phosphate dehydrogenase (G6PDH, 0.75-1 kunits/mg; Boehringer Mannheim, Indianapolis, Ind.) from Leuconostoc mesenteroides as the coupling enzyme (Scheme 2).
Recombinant human liver GK1 was expressed in E. coli as a glutathione S-transferase fusion protein (GST-GK) [Liang et al, 1995] and was purified by chromatography over a glutathione-Sepharose 4B affinity column using the procedure provided by the manufacturer (Amersham Pharmacia Biotech, Piscataway, N.J.).
The assay was conducted at 30° C. in a flat bottom 96-well tissue culture plate from Costar (Cambridge, Mass.) with a final incubation volume of 120 μL. The incubation reaction contained the following: 25 mM Hepes buffer (pH 7.1), 25 mM KCl, 5 mM D-glucose, 1 mM ATP, 1.8 mM NAD, 2 mM MgCl2, 1 μM sorbitol-6-phosphate, 1 mM dithiothreitol, test drug or 10% dimethylsulfoxide, ˜7 units/ml G6PDH, and GK (see below). All organic reagents were >98% pure and were from Boehringer Mannheim with the exceptions of D-glucose and Hepes which were from Sigma Chemical Co, St Louis, Mo. Test compounds were dissolved in dimethylsulfoxide and were added to the incubation reaction minus GST-GK in a volume of 12 μL to yield a final dimethylsulfoxide concentration of 10%. This mix was pre-incubated in the temperature controlled chamber of a SPECTRAmax 250 microplate spectrophotometer (Molecular Devices Corporation, Sunnyvale, Calif.) for 10 min to allow temperature equilibrium and then the reaction was started by the addition of 20 μL GST-GK.
After addition of enzyme, the increase in optical density (OD) at 340 nm was monitored spectrophotometrically to determine the rate of change (OD340 per min). The GK activity (OD340/min) in control wells (10% DMSO minus GK activators) was compared with the activity in wells containing test GK activators, and the concentration of activator that produced a 50% increase in the activity of GK, i.e., the SC1.5, was calculated. The table below provides the in vitro glucokinase activity for the compounds in the Examples: […]

Compared with `Cl.Cn1ccc(NC(=O)[C@H](CC2CCCCC2)N2CC(Oc3ccccc3C(F)(F)F)=CC2=O)n1` [Example 90, (S)-3-Cyclohexyl-N-(1-methyl-1H-pyrazol-3-yl)-2-[2-oxo-4-(2-trifluoromethyl-phenoxy)-2,5-dihydro-pyrrol-1-yl]-propionamide Hydrochloride], `CC(C)(O)Cn1ccc(NC(=O)[C@H](CC2CCCC2)N2CC(OCc3ccccc3)=CC2=O)n1` [Example 14, (S)-2-(4-Benzyloxy-2-oxo-2,5-dihydro-pyrrol-1-yl)-3-cyclopentyl-N-[1-(2-hydroxy-2-methyl-propyl)-1H-pyrazol-3-yl]-propionamide] is 4.2-fold higher in “SC1.5 (concentration of activator that produced a 50% increase in the activity of GK)” value: 0.088 µM for the first, 0.368 µM for the second.

First: CC1(C)OC[C@@H](Cn2ccc(NC(=O)[C@H](CC3CCCC3)N3CC(Oc4c(F)cccc4F)=CC3=O)n2)O1 [Example 87, (S)-3-Cyclopentyl-2-[4-(2,6-difluoro-phenoxy)-2-oxo-2,5-dihydro-pyrrol-1-yl]-N-[1-((R)-2,2-dimethyl-[1,3]dioxolan-4-yl-methyl)-1H-pyrazol-3-yl]-propionamide]
Second: CC(C)(O)Cn1ccc(NC(=O)[C@H](CC2CCCCO2)N2CC(Oc3c(F)cccc3F)=CC2=O)n1 (stereo partly drawn) [Example 93, (S)-2-[4-(2,6-Difluoro-phenoxy)-2-oxo-2,5-dihydro-pyrrol-1-yl]-N-[1-(2-hydroxy-2-methyl-propyl)-1H-pyrazol-3-yl]-3-(tetrahydro-pyran-2-yl)-propionamide]
The “SC1.5 (concentration of activator that produced a 50% increase in the activity of GK)” value of the first is 5.1-fold lower: 0.093 µM for the first, 0.477 µM for the second.

Going from `CC(C)C[C@@H](C(=O)Nc1ccn(C[C@@H](O)CO)n1)N1CC(Oc2cccc(Cl)c2Cl)=CC1=O.Cl` [Example 80, (S)-2-[4-(2,3-Dichloro-phenoxy)-2-oxo-2,5-dihydro-pyrrol-1-yl]-4-methyl-pentanoic acid [1-((R)-2,3-dihydroxy-propyl)-1H-pyrazol-3-yl]-amide Hydrochloride] to `Cc1ccccc1OC1=CC(=O)N([C@@H](CC(C)C)C(=O)Nc2ccn(C[C@@H](O)CO)n2)C1` [Example 124, (S)-4-Methyl-2-(2-oxo-4-o-tolyloxy-2,5-dihydro-pyrrol-1-yl)-pentanoic acid [1-((R)-2,3-dihydroxy-propyl)-1H-pyrazol-3-yl]-amide], the “SC1.5 (concentration of activator that produced a 50% increase in the activity of GK)” value rises from 0.211 µM to 0.336 µM (1.6-fold).

Going from `CC(C)C[C@@H](C(=O)Nc1ccn(C[C@@H]2COC(C)(C)O2)n1)N1CC(Oc2cccc(Br)c2F)=CC1=O` [Example 128, (S)-2-[4-(3-Bromo-2-fluoro-phenoxy)-2-oxo-2,5-dihydro-pyrrol-1-yl]-4-methyl-pentanoic acid [1-((R)-2,2-dimethyl-[1,3]dioxolan-4-yl-methyl)-1H-pyrazol-3-yl]-amide] to `CCOc1ccccc1OC1=CC(=O)N([C@@H](CC(C)C)C(=O)Nc2ccn(C[C@@H]3COC(C)(C)O3)n2)C1` [Example 83, (S)-2-[4-(2-Ethoxy-phenoxy)-2-oxo-2,5-dihydro-pyrrol-1-yl]-4-methyl-pentanoic acid [1-((R)-2,2-dimethyl-[1,3]dioxolan-4-yl-methyl)-1H-pyrazol-3-yl]-amide], the “SC1.5 (concentration of activator that produced a 50% increase in the activity of GK)” value rises from 0.351 µM to 8.055 µM (23-fold).

Going from `CCOc1ccc(F)c(OC2=CC(=O)N([C@@H](CC(C)C)C(=O)Nc3ccn(CC(C)(C)O)n3)C2)c1F` [Example 260, (S)-2-[4-(3-Ethoxy-2,6-difluoro-phenoxy)-2-oxo-2,5-dihydro-pyrrol-1-yl]-4-methyl-pentanoic acid [1-(2-hydroxy-2-methyl-propyl)-1H-pyrazol-3-yl]-amide] to `CCOc1ccc(F)c(OC2=CC(=O)N([C@@H](CC(C)C)C(=O)Nc3ccn(C[C@@H]4COC(C)(C)O4)n3)C2)c1F` [Example 116, (S)-2-[4-(3-Ethoxy-2,6-difluoro-phenoxy)-2-oxo-2,5-dihydro-pyrrol-1-yl]-4-methyl-pentanoic acid [1-((R)-2,2-dimethyl-[1,3]dioxolan-4-yl-methyl)-1H-pyrazol-3-yl]-amide], the “SC1.5 (concentration of activator that produced a 50% increase in the activity of GK)” value rises from 0.024 µM to 0.22 µM (9.2-fold).

First: CC(C)C[C@@H](C(=O)Nc1cnccn1)N1CC(Oc2cccc(C(C)(C)O)c2F)=CC1=O [Example 247, (S)-2-{4-[2-Fluoro-3-(1-hydroxy-1-methyl-ethyl)-phenoxy]-2-oxo-2,5-dihydro-pyrrol-1-yl}-4-methyl-pentanoic acid pyrazin-2-ylamide]
Second: CC(C)C[C@@H](C(=O)Nc1ncc(Cl)s1)N1CC(Oc2ccccc2Cl)=CC1=O [Example 190, (S)-2-[4-(2-chloro-phenoxy)-2-oxo-2,5-dihydro-pyrrol-1-yl]-4-methyl-pentanoic acid (5-chloro-thiazol-2-yl)-amide]
The “SC1.5 (concentration of activator that produced a 50% increase in the activity of GK)” value of the first is 4.1-fold higher: 2.59 µM for the first, 0.63 µM for the second.

Compared with `CC(C)C[C@@H](C(=O)Nc1ccn(C[C@@H](O)CO)n1)N1CC(Oc2cc(F)ccc2F)=CC1=O` [Example 101, (S)-2-[4-(2,5-Difluoro-phenoxy)-2-oxo-2,5-dihydro-pyrrol-1-yl]-4-methyl-pentanoic acid [1-((R)-2,3-dihydroxy-propyl)-1H-pyrazol-3-yl]-amide], `CCC[C@@H](C(=O)Nc1ccn(C[C@@H](O)CO)n1)N1CC(Oc2c(F)cccc2F)=CC1=O` [Example 157, (S)-2-[4-(2,6-Difluoro-phenoxy)-2-oxo-2,5-dihydro-pyrrol-1-yl]-pentanoic acid [1-((R)-2,3-dihydroxy-propyl)-1H-pyrazol-3-yl]-amide] is 5.6-fold higher in “SC1.5 (concentration of activator that produced a 50% increase in the activity of GK)” value: 0.33 µM for the first, 1.849 µM for the second.

Compared with `O=C(Nc1ccn(C[C@@H](O)CO)n1)[C@H](Cc1ccccc1)N1CC(Oc2ccccc2Cl)=CC1=O` [Example 181, (S)-2-[4-(2-chloro-phenoxy)-2-oxo-2,5-dihydro-pyrrol-1-yl]-N-[1-((R)-2,3-dihydroxy-propyl)-1H-pyrazol-3-yl]-3-phenyl-propionamide], `COCC[C@@H](C(=O)Nc1ccn(C[C@@H](O)CO)n1)N1CC(Oc2ccccc2Cl)=CC1=O` [Example 230, (S)-2-[4-(2-Chloro-phenoxy)-2-oxo-2,5-dihydro-pyrrol-1-yl]-N-[1-((R)-2,3-dihydroxy-propyl)-1H-pyrazol-3-yl]-4-methoxy-butyramide] is 5.8-fold higher in “SC1.5 (concentration of activator that produced a 50% increase in the activity of GK)” value: 1.064 µM for the first, 6.139 µM for the second.

Going from `C=CCOC(=O)Cc1nsc(NC(=O)[C@H](CC(C)C)N2CC(Oc3ccccc3Cl)=CC2=O)n1` [Example 111, (5-{(S)-2-[4-(2-Chloro-phenoxy)-2-oxo-2,5-dihydro-pyrrol-1-yl]-4-methyl-pentanoylamino}-[1,2,4]thiadiazol-3-yl)-acetic acid allyl ester] to `O=C(Nc1ccn(C[C@@H](O)CO)n1)C(CC1C[C@@H](F)[C@@H](F)C1)N1CC(Oc2ccccc2Cl)=CC1=O` (stereo partly drawn) [Example 263, 2-[4-(2-Chloro-phenoxy)-2-oxo-2,5-dihydro-pyrrol-1-yl]-3-((1R,3S,4R)-3,4-difluoro-cyclopentyl)-N-[1-((R)-2,3-dihydroxy-propyl)-1H-pyrazol-3-yl]-propionamide], the “SC1.5 (concentration of activator that produced a 50% increase in the activity of GK)” value falls from 0.694 µM to 0.09 µM (7.7-fold).

First: COC(=O)c1ccc(NC(=O)[C@H](CC2CCOCC2)N2CC(Oc3c(F)cccc3F)=CC2=O)nc1 [Example 41, (S)-6-[2-[4-(2,6-difluoro-phenoxy)-2-oxo-2,5-dihydro-pyrrol-1-yl]-3-(tetrahydro-pyran-4-yl)-propionylamino]-nicotinic acid methyl ester]
Second: CCN(C)C1=CC(=O)N([C@@H](CC2CCCCC2)C(=O)Nc2ccn(CC(C)(C)O)n2)C1 [Example 233, (S)-3-cyclohexyl-2-[4-(ethyl-methyl-amino)-2-oxo-2,5-dihydro-pyrrol-1-yl]-N-[1-(2-hydroxy-2-methyl-propyl)-1H-pyrazol-3-yl]-propionamide]
The “SC1.5 (concentration of activator that produced a 50% increase in the activity of GK)” value of the first is 190-fold lower: 0.071 µM for the first, 13.348 µM for the second.
